Measured values taken from paper PMC10470053, “Diverse p120RasGAP interactions with doubly phosphorylated partners EphB4, p190RhoGAP, and Dok1” (The Journal of Biological Chemistry, 2023).
“And” between values parts separate entries of the source, which are not always exact repeats. Equal entries are not always repeated. Square brackets hold non-standard residues; d marks the D form. Peptide text beside a SMILES is read from it. pY = N[C@@H](Cc1ccc(OP(=O)(O)O)cc1)C(=O)O

Tests used:
[1] = target: T1, RasGAP^232(mut) (R398E/K400E, C-SH2 mutant) (Homo sapiens, UniProt P20936, C236S/C261S/C372S/C402S/K400E/R398E); experiment: Isothermal titration calorimetry, C-SH2 mutant RasGAP^232(mut); format: binding
T1 construct: (residues 174–444, termed RasGAP^232); hexahistidine (TEV-cleavable) (N, cleaved yes); made in house; host or cells: E. coli Rosetta (DE3)
T1 sequence (P20936 174-444 C236S/C261S/C372S/R398E/K400E/C402S): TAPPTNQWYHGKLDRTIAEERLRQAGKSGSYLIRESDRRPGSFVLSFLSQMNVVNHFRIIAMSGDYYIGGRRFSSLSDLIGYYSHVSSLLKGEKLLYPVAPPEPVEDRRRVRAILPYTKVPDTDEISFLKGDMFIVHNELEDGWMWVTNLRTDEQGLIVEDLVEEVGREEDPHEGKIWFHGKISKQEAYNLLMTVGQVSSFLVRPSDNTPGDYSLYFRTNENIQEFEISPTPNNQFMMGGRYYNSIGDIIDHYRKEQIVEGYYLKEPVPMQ
Method: One possibility for the difference in binding affinity of EphB4 compared to the other dually phosphorylated peptides is that only a single SH2 domain engages EphB4 at any time. This is supported by the observation that the Kd of binding, 2 μM, is similar to other reported individual SH2 phosphotyrosine interactions (for examples see ([60])) and the evidence of only one inflection point in the doubly phosphorylated EphB4–binding isotherm (Figs. 2B and S3). To assess this hypothesis, we generated two RasGAP^232 mutants that disrupt the phosphotyrosine-binding sites of either the N- or C-SH2 domains and conducted further ITC experiments. […] For the ‘FLVR-unique” C-terminal SH2, we introduced a double mutation R398E/K400E, to abrogate phosphotyrosine binding guided by our previous work ([52]), termed RasGAP^232(mut) (Fig. 2D). We additionally generated a double mutant of both SH2 domains, RasGAP^2(mut)32(mut), and purified each of these proteins (Fig. S2, B–D). […] We then assessed phosphopeptide binding of the single mutant SH2 domains. […] This is similar to the Kd of 2 ± 0.7 μM observed for titration of this peptide into WT RasGAP^232.
To attempt to parse the specificity of RasGAP for the more N- or C-terminal EphB juxtamembrane phosphotyrosines pY590 and pY596, we assessed the affinity of RasGAP^232(mut) for shorter synthesized EphB4 peptides corresponding to either of the two phosphotyrosines (Fig. 1C). […] Alternatively, the C-terminal SH2 may contribute to a second weaker interaction in a tandem interaction. […] This low-affinity interaction represents a primarily single N-SH2-dominant interaction.
Purified RasGAP^232 protein and solubilized peptides were dialyzed overnight against buffer containing 20 mM Tris pH 8, 250 mM NaCl in Slide-A-Lyzer 3 ml 10 kDa molecular weight cut off cassettes (Spectra-Por) and Micro Float-A-Lyzer 0.1 to 0.2 ml, 0.1 to […] molecular weight cut off devices (Spectra-Por), respectively. Protein and peptide concentrations were determined by A280 measured on a Nanodrop Lite (Thermo Fisher Scientific) instrument using extinction coefficients of 45,840 M^−1 cm^−1 for RasGAP^232 (and mutants), 917 M^−1 cm^−1 for the doubly phosphorylated EphB4 peptide, and 458.5 M^−1 cm^−1 for the singly phosphorylated EphB4 peptides as determined by ([74]). Dok1 peptide concentration was confirmed using Amino Acid Analysis performed at UC Davis Molecular Structure Facility. Samples were centrifuged for 10 min at 4 °C and degassed for 7 min using a Degassing Station (TA Instruments). ITC experiments were performed on a Nano ITC (TA Instruments) by loading protein into the 190 μl sample cell and titrating 20 times with 2.5 μl peptide in the titration syringe. Concentrations for sample cell and syringe for each trial are included in Table S1. The data were analyzed in NanoAnalyze software (TA Instrument) using blank (constant) and independent models (https://www.tainstruments.com/itcrun-dscrun-nanoanalyze-software/).

[2] = target: T2, RasGAP^232(mut) (RasGAP^232 with R398E/K400E in the C-SH2 domain) (human, UniProt P20936 174-444, R398E | K400E | C236 | C261 | C372 | C402); experiment: ITC; protein in the 190 ul sample cell, titrated 20 times with 2.5 ul peptide from the syringe; 20 mM Tris pH 8, 250 mM NaCl; Nano ITC (TA Instruments); independent binding model; conditions: both partners purified
T2 construct: p120RasGAP (RASA1), human, UniProt P20936, residues 174-444, mutant of RasGAP^232 in the C-SH2 domain; also called C-SH2 mutant; source: E. coli Rosetta (DE3), purified (same protocol as the WT: Ni-NTA, TEV cleavage, anion exchange, SEC)
T2 sequence (looked up): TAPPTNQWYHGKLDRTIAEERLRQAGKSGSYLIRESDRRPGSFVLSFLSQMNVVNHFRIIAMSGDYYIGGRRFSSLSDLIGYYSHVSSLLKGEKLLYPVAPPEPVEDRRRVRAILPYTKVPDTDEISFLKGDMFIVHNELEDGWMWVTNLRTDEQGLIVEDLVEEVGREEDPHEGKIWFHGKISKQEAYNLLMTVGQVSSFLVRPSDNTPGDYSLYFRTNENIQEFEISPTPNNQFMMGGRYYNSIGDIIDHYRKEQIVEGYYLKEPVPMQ

[3] = target: T3, RasGAP^232(mut) (RasGAP^232 with R398E/K400E in the C-SH2 domain) (human, UniProt P20936 174-444, C236S | C261S | C372S | C402S | R398E | K400E); experiment: ITC; RasGAP^232 protein (WT or mutant) in the 190 µl sample cell, peptide in the syringe, 20 injections of 2.5 µl; 20 mM Tris pH 8, 250 mM NaCl; Nano ITC (TA Instruments); blank (constant) and independent models; values of single trials, averages and stdev; conditions: both partners purified
T3 construct: p120RasGAP, human, UniProt P20936, residues 174-444; Made by site-directed mutagenesis of RasGAP^232, which holds the four cysteine to serine mutations; also called C-SH2 mutant; source: E. coli Rosetta (DE3), purified (same protocol as the WT counterpart); not shown: His6, N-terminal, cleaved
T3 sequence (looked up): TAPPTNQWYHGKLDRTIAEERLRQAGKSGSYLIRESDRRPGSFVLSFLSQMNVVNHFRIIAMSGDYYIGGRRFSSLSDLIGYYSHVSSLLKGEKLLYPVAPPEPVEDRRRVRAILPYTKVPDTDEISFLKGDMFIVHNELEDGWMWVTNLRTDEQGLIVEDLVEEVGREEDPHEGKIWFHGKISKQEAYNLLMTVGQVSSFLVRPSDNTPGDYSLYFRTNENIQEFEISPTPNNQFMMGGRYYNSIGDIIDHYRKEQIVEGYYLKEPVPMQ

[4] = ITC, average of trials (Table S1)

Q: What does the source list for CC(=O)N[C@@H](CC(=O)O)C(=O)N1CCC[C@H]1C(=O)N[C@@H](Cc1ccccc1)C(=O)N[C@H](C(=O)N[C@@H](Cc1ccc(OP(=O)(O)O)cc1)C(=O)N[C@@H](CCC(=O)O)C(=O)N[C@@H](CC(=O)O)C(=O)N1CCC[C@H]1C(=O)N[C@@H](CC(N)=O)C(=O)N[C@@H](CCC(=O)O)C(N)=O)[C@@H](C)O [pY596 EphB4] (Ac-DPFT[pY]EDPNE-NH2)?
A: weaker binding than the doubly phosphorylated EphB4 peptide ([1]; ITC Kd, singly versus doubly phosphorylated EphB4 peptide): about 10 fold; n ([1]; ITC stoichiometry, mean ± SD of trials): 0.6 ± 0.2; -T∆S [1, 4]: -5 kJ/mol; Ka [1, 4]: 0.05 µM⁻¹; ∆G [1, 4]: -26.7 kJ/mol; ΔH ([1]; ITC, mean ± SD of trials): -22 kJ/mol and -22 ± 4 kJ/mol; ΔS ([1]; ITC, mean ± SD of trials): 15 J/mol∗K and 15 ± 13 J/mol∗K; -T∆S ([1]; trial 2, ITC): -6.6 kJ/mol; ∆G ([1]; trial 2, ITC): -26.6 kJ/mol; ∆H ([1]; trial 2, ITC): -20.1 kJ/mol; ∆S ([1]; trial 2, ITC): 22.0 J/mol*K; -T∆S ([1]; trial 3, ITC): -0.2 kJ/mol; Ka ([1]; trial 3, ITC): 0.05 µM⁻¹; ∆G ([1]; trial 3, ITC): -27.1 kJ/mol; ∆H ([1]; trial 3, ITC): -26.9 kJ/mol; ∆S ([1]; trial 3, ITC): 0.8 J/mol*K

B1: singly phosphorylated EphB4 peptide pY590 (residues 586-595) (peptide)
peptide: Ac-GTKV[pY]IDPFT-NH2
SMILES: CC[C@H](C)[C@H](NC(=O)[C@H](Cc1ccc(OP(=O)(O)O)cc1)NC(=O)[C@@H](NC(=O)[C@H](CCCCN)NC(=O)[C@@H](NC(=O)CNC(C)=O)[C@@H](C)O)C(C)C)C(=O)N[C@@H](CC(=O)O)C(=O)N1CCC[C@H]1C(=O)N[C@@H](Cc1ccccc1)C(=O)N[C@H](C(N)=O)[C@@H](C)O
notes: EphB4 juxtamembrane region, UniProt P54760, residues 586-595; also called pY590 EphB4; source: synthetic peptide, bought: GenScript
Q: What does the source list for B1?
A: Kd [2]: 16 ± 7 µM; dH [2]: -15.5 kJ/mol; stoichiometry N [2]: 0.8 ± 0.1

B2: singly phosphorylated EphB4 peptide pY596 (peptide)
peptide: Ac-DPFT[pY]EDPNE-NH2
SMILES: CC(=O)N[C@@H](CC(=O)O)C(=O)N1CCC[C@H]1C(=O)N[C@@H](Cc1ccccc1)C(=O)N[C@H](C(=O)N[C@@H](Cc1ccc(OP(=O)(O)O)cc1)C(=O)N[C@@H](CCC(=O)O)C(=O)N[C@@H](CC(=O)O)C(=O)N1CCC[C@H]1C(=O)N[C@@H](CC(N)=O)C(=O)N[C@@H](CCC(=O)O)C(N)=O)[C@@H](C)O
notes: EphB4, UniProt P54760; also called pY596 EphB4; source: synthetic peptide, bought: GenScript
Q: What does the source list for B2?
A: Ka [3]: 40000 M⁻¹ and 50000 M⁻¹; Kd [3]: 24 µM and 22 µM and 18 µM; stoichiometry N [3]: 0.7 and 0.8 and 0.4
